# Results as given in patent publication US8329160B2, “Interferon alpha sequential regimen for treating cancers” (HI-Stem, priority 2007, dated 2012).
# Key:
# [1] = tested on: HSCs; test: Survival of mice under repeated 5FU after polyIC priming (IFN alpha pulse); type: in vivo
# Experimental: Wild-type C57B1/6 and IFNAR−/− mice were treated as follows: mice were injected with […] mouse polyIC (Invivogen) twice (polyIC is a double stranded RNA mimetic strongly inducing IFNα/b), the lag time between the two injections being 48 h. PolyIC injections are used in this experiment as IFN alpha “pulse”. Mice that were only treated with 5FU without priming injections of polyIC were used as controls.
# 5-Fluoro-uracil (5FU) was injected (150 mg/kg, Sigma) at different times after the last polyIC injection: 0 h (same time as last polyIC injection); 24 h, 48 h, 72 h, 5 days and 7 days. The proliferation rate of cells at time of 5FU injection was analyzed by BrdU analysis of KLS cells as described in the above examples. Single 5FU injections were repeated every 7 days. The survival of the mice was monitored for a period of 20 days.
# [2] = tested on: hematopoietic stem cells (HSCs) (lineage-CD117+Sca1+); test: BrdU uptake (proliferation rate) of KLS hematopoietic stem cells in treated mice; type: in vivo
# Experimental: Wild-type C57B1/6 mice were treated with IFNα which was obtained as decribed in the literature (Le Bon et al., 2003, Nat. Immunol. 4(10):1009-15). at 0 h and 24 h, respectively with 10×10^3 U/mouse, and were then treated at 36 h with Bromodeoxyuridine (BrdU) at 360 μg/mouse for cell detection. Mice which were only injected with BrdU were used as control. Bone marrow was then taken from the long bones of hindlegs and prepared by standard procedures (Wilson et al., 2004, Genes & Dev 18; 2747-2763). Bone marrow cells were then stained with a cocktail of conjugated antibodies (Bioscience) against mice lineage markers (CD4, CD8, CD11b, Gr1, Ter119, B220), CD117 (c-kit), Sca1 (Ly-6A/E), CD34, CD135, CD48 or CD150). Cells were then fixed. BrdU uptake was analyzed using the BrdU staining kit (BD Biosciences).
# Five and six-color flurorescent-activated cell sorting (FACS) analysis (FITC, PE, PE-Cy5, PE-Cy7, APC, APC-Cy7) were performed using a FACS Canto flow cytometer (Becton Dickinson) as described in the literature (Wilson et al., 2004, above). Data were analyzed using FlowJo (Tree Star, Inc.; Ashland, USA software).
# Percentages of BrdU positive KLS-HSCs cells (lineage CD117+Sca1+) were determined as a measurement of the proliferation rate of these cells. The same BrdU analyses were performed on subpopulations of HSCs.
# [3] = tested on: dormant HSCs (KLS CD150+CD48-CD34-); test: BrdU pulse-chase, label-retaining (dormant) long-term HSCs; type: in vivo, mice
# Experimental: After a period of permanent BrdU labeling for 10 days, mice were kept without BrdU for 70 days. 14 days before the analysis, the mice were either treated three times with polylC or with PBS. 10 days later (and 70 days after the last BrdU injection) three HSC populations containing an increasing percentage of dormant HSCs were isolated and analysed for the presence of BrdU+label-retaining cells (LRCs), which represent dormant HSCs.
# C57B1/6 mice and IFNAR−/− mice were given BrdU (0.8 mg/ml; Sigma) in the drinking water for 10 days. After this BrdU pulse, mice were left for a chase of 10 weeks. Then, mice were twice injected with IFNα at a concentration of 10×10^3 U/mouse each (48 h gap between the 2 injections) or left untreated. BrdU uptake was then analyzed 10 days after the last IFNα injection. After this BrdU pulse-chase experiment in wild-type mice, about 15% of the long-term HSCs (KLS CD150+CD48−CD34−) are still labeled with BrdU (label retaining cells-LRCs). […] This was not the case with long-term HSCs lacking the IFN-receptor (in IFNAR−/− mice) showing that this effect is indeed mediated by Interferon signaling (FIG. 1D).
# [4] = tested on: HSCs; test: Mixed bone marrow chimeras (wt / IFNAR-/-), BrdU uptake in LSK cells; type: in vivo, mice; details: IFNα 10×10^3 U/mouse
# Experimental: The different mice were treated with IFNα (10×103 U/mouse) in comparison with untreated wt mice (C) as described in Example 3. FIG. 2B represents the BrdU uptake in wt (CD45.1) and IFNAR−/− (CD45.2) LSK cells in the mixed bone marrow chimeras in response to treatment with IFNα.
# To investigate whether HSCs respond directly to IFNα in vivo, mixed bone marrow “chimeras” comprising various ratios of wild-type (wt) and IFNAR−/− (IFNRKO) bone marrow cells were treated with IFNα (10×10^3 U/mouse) in comparison with untreated wt mice (C) (FIG. 2A).
compound,measurement,setting,value
"O=c1[nH]cc(F)c(=O)[nH]1 [5FU, 5-Fluoro-uracil]",survival of mice under repeated 5FU treatment without polyIC priming,"[1]; 5FU 150 mg/kg every 7 days, 20 days",do survive
polyIC [reference compound],effect of polyIC priming on survival under 5FU,[1]; IFNAR-/- mice,no effect on the survival
same,survival of mice (lethality by elimination of all HSCs),"[1]; wild-type C57B1/6, polyIC twice (48 h apart) prior to 5FU 150 mg/kg repeated every 7 days, 20 days monitoring",efficient lethality
same,increase of HSC proliferation rate (BrdU uptake),"[2]; IFNAR-/- mice, polyIC once at 10 μg/g",not seen
same,percentage of BrdU+-LRCs in HSC populations,"[3]; mice treated three times with polyIC vs PBS, 70 days after last BrdU",strongly reduced
IFNα,activation of HSCs in mixed wt / IFNAR-/- bone marrow chimeras,[4],direct and an indirect activation
same,dose dependence of increase in proliferation,[2]; different doses of IFNα (U/g of mouse),dose-dependent
same,"proliferation in subpopulations of HSCs (long-term HSCs, short-term HSCs, MPPs)","[2]; wild-type C57B1/6 mice, after IFNα treatment",increase in proliferation in all subpopulations of HSCs
same,proliferation rate of HSCs (percentage of BrdU positive KLS cells),"[2]; wild-type C57B1/6 mice, IFNα 10×10^3 U/mouse at 0 h and 24 h, BrdU at 36 h, untreated control 23%",63%
same,absolute cell numbers of HSCs,"[2]; wild-type mice, after IFNα treatment",increase in absolute cell numbers
same,reduction of LRC+ long-term HSCs (activation of dormant HSCs),[3]; IFNAR-/- mice (HSCs lacking the IFN-receptor),not the case
same,number of LRC+ long-term HSCs (BrdU label retaining cells),"[3]; wild-type mice, 2 injections IFNα 10×10^3 U/mouse 48 h apart, analysed 10 days after last injection, untreated about 15% LRC",dramatically reduced
